PubChem BioAssay (NCI)
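Dose response: 5 concentrations. Exposure: 48 h. Format: 96-well plates. Endpoint: linear interpolation; highest concentration if not reached. The concentration for 50% growth inhibition is given as GI50. TGI denotes the concentration required for complete inhibition of growth.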

Assays:
Experiment in all cases: NCI tumour cell line growth inhibition, 48 h
[1] = tested on: OVCAR-5 ovarian
[2] = tested on: SF-295 CNS
[3] = tested on: UO-31 renal
[4] = tested on: K-562 leukemia
[5] = tested on: NCI-H460 lung
[6] = tested on: HT29 colon
[7] = tested on: HCT-116 colon
[8] = tested on: SK-OV-3 ovarian
[9] = tested on: SF-539 CNS
[10] = tested on: SR leukemia

SMILES | TGI [1] [µM] | TGI [2] [µM] | TGI [3] [µM] | TGI [4] [µM] | TGI [5] [µM] | TGI [6] [µM] | TGI [7] [µM] | TGI [8] [µM] | TGI [9] [µM] | TGI [10] [µM] | GI50 [1] [µM] | GI50 [2] [µM] | GI50 [4] [µM] | GI50 [5] [µM] | GI50 [6] [µM] | GI50 [8] [µM] | GI50 [9] [µM]
O=C(OCc1ccccc1[N+](=O)[O-])N1c2ccccc2[C@@]23O[C@]24CCC[C@H]3C#C/C=C\C#C[C@H]14 | > 100 | > 100 | > 100 | > 100 | > 100 | > 100 | > 100 | > 100 | > 100 |  |  |  |  |  |  |  | 
O=C1NC(N2CCOCC2)=N/C1=C\c1ccccc1 | > 100 | > 100 | > 100 |  |  | > 100 | > 100 | > 100 | > 100 | > 100 |  |  |  |  |  |  | 
CC(=O)O/N=C1\C=Cc2c(no[n+]2[O-])C1=O | 32.7 | > 100 | 28.3 | > 100 | > 100 | 32.4 | 27.6 |  | 31.3 | 48.5 |  |  |  |  |  |  | 
Nc1c(Cl)ncnc1NCC1(CO)CCC1 | > 100 | > 100 | > 100 | > 100 | > 100 | > 100 | > 100 |  | > 100 | > 100 |  |  |  |  |  |  | 
CN(C)CCNc1ccccn1 | > 100 | > 100 | > 100 | > 100 | > 100 | > 100 | > 100 |  |  | > 100 |  |  |  |  |  |  | 
COC(=O)c1ccc2c(c1)CC1(C2)Cc2ccc3c(c2C1)CCC3 (configuration not stated) | > 100 | 66.4 |  | > 100 |  | 55.4 | > 100 | 51.8 | > 100 | > 100 |  |  |  |  |  |  | 
CC1CN=C(c2ccc3c(c2)Cc2cc(C4=NCC(C)N4)ccc2-3)N1 (configuration not stated) | > 100 | > 100 | > 100 | > 100 | 86.8 | > 100 | > 100 | > 100 |  | > 100 |  |  |  |  |  |  | 
CS(=O)(=O)c1nc(-c2cc3c(c(S(C)(=O)=O)n2)CCC3)cc2c1CCC2 | > 100 | > 100 | > 100 | > 100 | > 100 | > 100 | > 100 | > 100 | > 100 |  |  |  |  |  |  |  | 
COc1cc(/C=C/C(=O)OC[C@]23O[C@H]2[C@@H](OC2OC(C)C(O)C(O)C2O)C2C=CO[C@@H](OC4OC(CO)C(O)C(O)C4O)C23)ccc1O (some centres not stated) | > 100 | > 100 | > 100 | > 100 | > 100 | > 100 | > 100 | > 100 |  | > 100 |  |  |  |  |  |  | 
O=C(/C=C/c1ccco1)c1ccc(Nc2ccnc3cc(Cl)ccc23)cc1 | > 100 | > 100 |  | > 100 | > 100 | > 100 |  | > 100 | > 100 |  | 52 | > 100 | 2.97 | 2.13 | 3.09 | > 100 | 15
COc1ccc(/C=N/N=C(N)N)c(C(=O)O)c1OC |  | > 100 | > 100 | > 100 | > 100 | > 100 | > 100 | > 100 | > 100 |  |  |  |  |  |  |  | 
CSCC[C@@H](NC(=O)[C@H](CC(C)C)NC(=O)C(Cc1cnc[nH]1)NC(=O)CNC(=O)[C@@H](NC(=O)[C@H](C)NC(=O)[C@H](Cc1cn(C=O)c2ccccc12)NC(=O)[C@H](CCC(N)=O)NC(=O)[C@@H](N)CC(N)=O)C(C)C)C(N)=O (some centres not stated) | > 100 | > 100 | > 100 | > 100 | > 100 | > 100 | > 100 | > 100 | > 100 |  |  |  |  |  |  |  | 
O=C(/C=C/c1ccccc1O)CC(=O)/C=C/c1ccccc1O |  | > 31.6 | 12.6 | > 31.6 | 30.7 |  | 7.42 |  | 15.7 | > 25 |  |  |  |  |  |  | 
C=CCn1c(-c2ccc(N=NNc3ccc(-c4n[nH]c(=S)n4CC=C)cc3)cc2)n[nH]c1=S | > 100 | 15.7 | 3.97 | 7.71 |  |  |  | 25.3 |  | > 100 |  |  |  |  |  |  | 
C(=C/c1ccc2nc(-c3ccc(/C=C/C=N/NC4=NCCCN4)cc3)cn2c1)/C=N/NC1=NCCCN1 | > 100 | > 100 | > 100 | 79.9 | 73.2 |  | > 100 | > 100 | > 100 | > 100 |  |  |  |  |  |  | 
Clc1ccc2nc3c(c(-c4ccccc4)nn3-c3ccccc3)c(-c3ccccc3)c2c1 | > 100 | > 100 | > 100 | > 100 | > 100 | > 100 | > 100 | > 100 |  | > 100 |  |  |  |  |  |  | 
CS(=O)(=O)c1ccc(C2=C(c3ccccc3)C(=O)OC2)cc1 | > 100 | > 100 | > 100 | > 100 | > 100 |  | > 100 | > 100 | > 100 | > 100 |  |  |  |  |  |  | 
NC(=O)c1ncn(C2CCC(CP(=O)(O)O)C2)c1N (configuration not stated) | > 100 | > 100 | > 100 |  | > 100 | > 100 | > 100 | > 100 | > 100 | > 100 |  |  |  |  |  |  | 
CC(=O)Nc1ccc(S(=O)(=O)/N=c2/sc(S(N)(=O)=O)nn2C)cc1 | > 100 | > 100 | > 100 |  | > 100 | > 100 | > 100 | > 100 | > 100 | > 100 |  |  |  |  |  |  | 
CCOC(=O)C(NC(=O)Nc1ccccc1)(Nc1cccc(Cl)c1)C(F)(F)F (configuration not stated) | > 100 |  | > 100 | > 100 | > 100 | > 100 | > 100 | > 100 | > 100 | > 100 |  |  |  |  |  |  | 
Cc1cc(CC(O)(C(F)(F)F)C(F)(F)F)cc(CC(O)(C(F)(F)F)C(F)(F)F)n1 | 19.2 | 9.94 | 4.02 | > 100 | 4.2 | 7.79 | 6.09 |  | 8.71 | 15.1 |  |  |  |  |  |  | 
C=C1CN(C(=O)c2cc3cc(OC)c(OC)c(OC)c3[nH]2)c2cc([N+](=O)[O-])ccc21 | > 100 |  | > 100 | > 100 | > 100 | > 100 | > 100 | > 100 | > 100 | > 100 |  |  |  |  |  |  | 
COC(=O)[C@@]12CC3CN(Cc4c1[nH]c1ccccc41)C2CC3=O | > 100 | > 100 |  | > 100 | > 100 | > 100 | > 100 | > 100 | > 100 |  |  |  |  |  |  |  | 
